Test results: patent US5776955A, “Use of unsubstituted and substituted n-(pyrrol-1-yl)pyridinamines as anticonvulsant agents” (Hoechst Marion Roussel, Inc., priority 1996, dated 1998)

Experiments:
mice = assay: Supramaximal electroshock in mice (block of tonic seizure); type: in vivo, mouse (male CD-1); details: intraperitoneal, male CD-1 mice
Description: This procedure is used as to predict anticonvulsant activity of a test compound in vivo by its ability to block a full tonic seizure induced by a supramaximal electroshock stimulation as an indication of efficacy in preventing grand mal seizures. Male CD-1 mice (Charles River) weighing 18-30 grams were housed in accordance with the "NIH Guide to Care and Use of Laboratory Animals" (National Institutes of Health Care Publication 85-23, revised 1985) with a 12 hour light/dark cycle and free access to food and water. On the day of testing, animals are brought to the laboratory and randomly assigned to groups of six for the time course experiments and to test groups of ten for the dose-response experiments. The apparatus used for the test was the Wahlquist Electroshock Stimulator (Model H), which has a power source of 120 volts ac. A current of 15.5 mA lasting for 300 msec was delivered by placing the terminals of the stimulator across the eyes of the animal. This stimulus results in a tonic seizure, defined as a brief period of hindlimb flexion followed by a prolonged period of hindlimb extension. […] Protection is calculated as a normalized percent inhibition relative to a vehicle treated control group. A time course is performed to determine the peak time of drug action and then a dose response performed at the peak time to determine drug potency. Mice are dosed in a randomized fashion using a total of 4 dose groups and one vehicle control group. The ED50 value and 95% confidence limits are calculated by a computerized Litchfield and Wilcoxon analysis. Drugs are prepared dissolved in distilled water and, if insoluble a drop of surfactant is added. Drugs are routinely administered intraperitoneally for this test and given in a dosage volume of 10 ml/kg.

membrane sodium channels = details: Willow and Catterall, 1982; Olsen, 1986; cited from earlier work
sodium channels = details: 25 nM [^3 H]batrachotoxin, rat cortex vesicular preparation, 60 min, 25° C., pH 7.4; read-out: IC50, Inhibition of [^3 H]Batrachotoxin Binding

CCCN(c1ccncc1)n1cc(C)c2ccccc21.O=C(O)/C=C\C(=O)O [3-Methyl-N-propyl-N-(4-pyridinyl)-1H-indol-1-amine maleate]
ED50 (mice; Mus musculus, ip, at peak time of drug action, read-out: ED50, inhibition of supramaximal electroshock): 14.4 mg/kg

CCCN(c1ccncc1F)n1cc(C)c2ccccc21.Cl [N-(3-Fluoro-4-pyridinyl)-N-propyl-3-methyl-1H-indol-1-amine hydrochloride]
percent inhibition (protection), supramaximal electroshock (mice; 30 mpk): 50% | percent inhibition (protection), supramaximal electroshock (mice; 60 mpk): 50%

NC(=O)N1c2ccccc2C=Cc2ccccc21 [Carbamazepine]
allosteric inhibition of [^3 H]batrachotoxin binding (membrane sodium channels): allosterically inhibit the binding of [^3 H]batrachotoxin to membrane sodium channels

CCCN(c1ccncc1F)n1cc(C)c2cc(O)ccc21 [1-[(3-Fluoro-4-pyridinyl)propylamino]-3-methyl-1H-indol-5-ol]
IC50 (sodium channels): 19 µM
